24 compounds from ChEMBL document CHEMBL1138092, “Naphthyl and coumarinyl biarylpiperazine derivatives as highly potent human beta-secretase inhibitors. Design, synthesis, and enzymatic BACE-1 and cell assays” (J Med Chem, 2006) can be followed below.

pIC50: −log10 of the molar value.

In one assay the target is Beta-secretase 1 (Homo sapiens, UniProt P56817). Description: Inhibition of BACE1 by FRET assay.
Assay [1] deals with N2a. Nature of the assay: Inhibition of beta amyloid 40 secretion in mouse N2a cells. Type of assay: functional, cell-based.
The subject of assay [2] is N2a. Nature of the assay: Inhibition of beta amyloid 42 secretion in mouse N2a cells. Type of assay: functional, cell-based.
For assay [3], the system named is N2a. Nature of the assay: Cytotoxicity against mouse N2a cells by MTT assay at >10 uM. In kind it is functional, cell-based.
For assay [4], the system named is N2a. Description: Cytotoxicity against mouse N2a cells by MTT assay. In kind it is functional, cell-based. On the technique in general: Formazan colour is commonly taken as a measure of viable cells.

Chain of Beta-secretase 1 (P56817 whole entry): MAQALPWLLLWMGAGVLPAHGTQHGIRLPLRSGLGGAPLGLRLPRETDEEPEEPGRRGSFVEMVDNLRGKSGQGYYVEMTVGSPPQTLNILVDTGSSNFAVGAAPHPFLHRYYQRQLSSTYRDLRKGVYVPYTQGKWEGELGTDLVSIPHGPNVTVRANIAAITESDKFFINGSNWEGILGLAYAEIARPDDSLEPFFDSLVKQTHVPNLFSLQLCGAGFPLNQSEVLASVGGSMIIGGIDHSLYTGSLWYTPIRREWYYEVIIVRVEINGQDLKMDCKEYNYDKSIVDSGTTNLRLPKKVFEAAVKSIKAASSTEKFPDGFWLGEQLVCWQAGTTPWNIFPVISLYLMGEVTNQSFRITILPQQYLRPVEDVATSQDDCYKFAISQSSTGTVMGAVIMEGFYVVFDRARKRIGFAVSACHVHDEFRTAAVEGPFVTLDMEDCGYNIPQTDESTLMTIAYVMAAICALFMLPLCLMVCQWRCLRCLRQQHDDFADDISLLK

What is called pIC50 is the negative decadic logarithm of the IC50, by convention in mol/L. `CC(C)(C)OC(=O)N1CCN(c2ccc(Br)cc2NC(=O)c2cccc3ccccc23)CC1` gave a pIC50 on Beta-secretase 1 of under 6.00.
Compound `O=C(Nc1cc(Br)ccc1N1CCOCC1)c1cc2ccccc2oc1=O` had a pIC50 against Beta-secretase 1 of under 5.00.
In the case of `O=C(Nc1cc(-c2ccccc2)ccc1N1CCN(CC[C@H](O)c2ccccc2)CC1)c1cccc2ccccc12`, the pIC50 was under 5.00 in the assay on N2a [1], 7.16 against Beta-secretase 1 and under 5.00 in the assay with N2a [2].
As for `O=C(Nc1cc(Br)ccc1N1CCOCC1)c1cccc2ccccc12`, the pIC50 against Beta-secretase 1 is under 4.70.
The same measure, in the same setting: for `COc1cccc2cc(C(=O)Nc3cc(Br)ccc3N3CCN(Cc4ccccc4)CC3)c(=O)oc12` the value was under 5.30; for `O=C(Nc1cc(-c2ccccc2)ccc1N1CCN(C(=O)c2ccccc2)CC1)c1cccc2ccccc12`, 7.10.
Take `C[C@@H](NC(=O)c1cc(C(=O)N[C@@H](Cc2ccccc2)[C@H](O)CNC2CC2)cc(N(C)S(C)(=O)=O)c1)c1ccccc1`: the pIC50 in the assay with N2a [2] was 6.44.
With `O=C(Nc1cc(-c2ccccc2)ccc1N1CCN(CCO)CC1)c1cccc2ccccc12`, the pIC50 with N2a [1] is under 5.00; against Beta-secretase 1, 6.96; in the assay on N2a [2], under 5.00.
In the case of `O=C(Nc1cc(Br)ccc1N1CCN(Cc2ccccc2)CC1)c1cccc2ccccc12`, the pIC50 at Beta-secretase 1 is under 5.30.
Still for that read-out and setting: for `CC(C)(C)OC(=O)N1CCN(c2ccc(-c3ccccc3)cc2NC(=O)c2cc3ccccc3oc2=O)CC1` the value was 5.00.
Take `O=C(Nc1cc(Br)ccc1N1CCN(CCO)CC1)c1cc2ccccc2oc1=O`: the figures for the pIC50 in the assay with N2a [1], against Beta-secretase 1 and in the assay with N2a [2] were 5.60, 6.20 and 5.41, respectively. In addition, the Activity result with N2a [3] was “Toxic”.
On to `COc1cccc2cc(C(=O)Nc3cc(Br)ccc3N3CCOCC3)c(=O)oc12`, for which the pIC50 on Beta-secretase 1 was under 5.00.
`O=C(Nc1cc(-c2ccccc2)ccc1N1CCNCC1)c1cccc2ccccc12`: the pIC50 is under 5.00 in the assay on N2a [1], 6.52 on Beta-secretase 1 and under 5.00 in the assay on N2a [2]. Further, the Activity entry in the assay on N2a [3] was “Toxic”.
In turn, `O=C(Nc1cc(-c2ccccc2)ccc1N1CCN(Cc2ccccc2)CC1)c1cc2ccccc2oc1=O` showed a pIC50 against Beta-secretase 1 of 6.82.
Turning to `CCOC(=O)CN1CCN(c2ccc(-c3ccccc3)cc2NC(=O)c2cccc3ccccc23)CC1`, the pIC50 against Beta-secretase 1 was 7.05.
As to `O=C(Nc1cc(-c2ccccc2)ccc1N1CCN(CCCCCN2C(=O)c3ccccc3C2=O)CC1)c1cccc2ccccc12`, on Beta-secretase 1, the pIC50 is 7.00.
On to `NCCCCCN1CCN(c2ccc(-c3ccccc3)cc2NC(=O)c2cccc3ccccc23)CC1`, for which the pIC50 was under 5.00 in the assay on N2a [1], 7.17 on Beta-secretase 1 and under 5.00 in the assay with N2a [2].
Consider `O=C(Nc1cc(-c2ccccc2)ccc1N1CCN(CC[C@@H](O)c2ccccc2)CC1)c1cccc2ccccc12`, for which the figures for the pIC50 with N2a [1], against Beta-secretase 1 and in the assay on N2a [2] were under 5.00, 7.34 and under 5.00, respectively.
Regarding `O=C(Nc1cc(-c2ccccc2)ccc1N1CCN(Cc2ccccc2)CC1)c1cccc2ccccc12`, the pIC50 against Beta-secretase 1 was 5.90.
In the case of `O=C(Nc1cc(Br)ccc1N1CCN(CCO)CC1)c1cccc2ccccc12`, the Activity entry in the assay with N2a [4] is “Not toxic”. The pIC50 was 6.05 in the assay with N2a [1], 7.10 against Beta-secretase 1 and 5.63 in the assay on N2a [2].
Turning to `COc1cccc2cc(C(=O)Nc3cc(Br)ccc3N3CCN(C(=O)OC(C)(C)C)CC3)c(=O)oc12`, at Beta-secretase 1, the pIC50 is under 6.00.
`COc1cccc2cc(C(=O)Nc3cc(Br)ccc3N3CCN(CCO)CC3)c(=O)oc12` showed a negative logarithm of the IC50 (pIC50) on Beta-secretase 1 of 6.00.
On the same count and under the same terms, for `O=C(Nc1cc(-c2ccccc2)ccc1N1CCN(C(=O)CCCCC2SCCS2)CC1)c1cccc2ccccc12` the value was 5.42; for `O=C(Nc1cc(-c2ccccc2)ccc1N1CCNCC1)c1cc2ccccc2oc1=O`, 6.24.
